Counter-ions that a name gives are not always drawn.
Tests used:
[1] = test system: adrenaline-induced arrhythmia in rats; assay: Therapeutic antiarrhythmic activity in adrenaline-induced arrhythmia; format: in vivo, rat; details: i.v. at ED84 at the peak of adrenaline-induced arrhythmia (20 μg/kg)
Experimental: The ECG was recorded constantly for 5 min as well as in the 10th and 15th min of the experiment.

α1B-adrenoceptors = target: T1, α1B-adrenoceptors (Mus musculus, UniProt P97717); assay: Functional bioassay, isolated mouse spleen, noradrenaline contraction; format: biochemical; details: noradrenaline as agonist; for Kb: read-out: pA2 ± S.E.M., α1B (converted)
T1 construct: The spleen was removed from male mice; from tissue; host or cells: isolated mouse spleen
T1 sequence (P97717 1-514): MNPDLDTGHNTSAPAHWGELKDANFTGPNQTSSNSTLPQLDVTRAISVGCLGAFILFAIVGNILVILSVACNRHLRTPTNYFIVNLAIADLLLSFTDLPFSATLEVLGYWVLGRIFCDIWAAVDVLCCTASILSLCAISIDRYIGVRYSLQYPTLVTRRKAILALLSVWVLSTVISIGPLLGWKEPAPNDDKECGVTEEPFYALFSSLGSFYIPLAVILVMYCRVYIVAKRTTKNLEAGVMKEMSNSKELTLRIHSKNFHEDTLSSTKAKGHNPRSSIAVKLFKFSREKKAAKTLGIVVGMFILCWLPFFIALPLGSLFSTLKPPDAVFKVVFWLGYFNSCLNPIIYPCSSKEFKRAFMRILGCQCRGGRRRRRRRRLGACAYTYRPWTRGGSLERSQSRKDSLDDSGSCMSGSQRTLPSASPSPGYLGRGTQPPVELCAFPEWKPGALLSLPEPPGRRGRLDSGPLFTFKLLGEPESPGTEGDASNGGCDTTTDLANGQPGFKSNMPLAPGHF
Experimental: The influence on α1B-adrenoceptors was evaluated using the isolated mouse spleen. The spleen was removed from male mice right after killing the anesthetized animal by cervical dislocation. […] The initial optimal tissues tension was set at 1.0 g. Through the 100 min of equilibration tissues were stimulated with noradrenaline (0.1−10.0 μM) three times with washing out until the contractile response become constant. Two cumulative concentration-response curves to noradrenaline, at an interval of 60 min, were established on each tissue both in the presence and absence of antagonist. The incubation with antagonists went on for 30 min. The experiments were carried out in the constant presence of propranolol (1 μM) to block β-adrenoceptors, and minimize the involvement of these adrenoceptors in the response to noradrenaline.
(§1) Data are means ± S.E.M. of at least 4 separate experiments. To establish Hill slopes for the agonist concentration–response curves and calculate EC50 values, curves were fitted to all the data by non-linear regression. The EC50 value in the presence and absence of antagonists was used to ascertain the concentration ratio (CR). Schild analysis was performed.

[2] = test system: lipid peroxidation in rat brain homogenate; assay: Lipid peroxidation in rat brain homogenate (TBARS), antioxidant effect; format: biochemical; details: 10^−3 M; for % reduction of absorbance (% antioxidant activity) / Absorbance: TBARs at 532 nm
Experimental: The rat brain homogenate containing 10 mg tissue/ml was prepared in 0.9% saline. The rates of membrane lipid peroxidation were measured by the formation of thiobarbituric acid reactive substances (TBARS). Rat brain homogenates (1 ml) were incubated at 37°C for 5 min with 10 μl of a tested compound or vehicle. Lipid peroxidation was initiated by the addition of 50 μl of 0.5 mM FeCl2 and 50 μl of 2.0 mM ascorbic acid. After 30 min of incubation, the reaction was stopped by adding 0.1 ml of 0.2% butylated hydroxytoluene (BHT). Thiobarbituric acid reagent was then added and the mixture was heated for 15 min in a boiling water bath.

α1A-adrenoceptors = target: T2, α1A-adrenoceptors (Rattus norvegicus, UniProt P43140); assay: Functional bioassay, isolated rat tail artery, noradrenaline contraction; format: biochemical; details: noradrenaline as agonist; for Kb: read-out: pA2 ± S.E.M., α1A (converted)
T2 construct: the middle part of the ventral caudal artery was removed; from tissue; host or cells: isolated rat tail (ventral caudal) artery rings
T2 sequence (P43140 1-466): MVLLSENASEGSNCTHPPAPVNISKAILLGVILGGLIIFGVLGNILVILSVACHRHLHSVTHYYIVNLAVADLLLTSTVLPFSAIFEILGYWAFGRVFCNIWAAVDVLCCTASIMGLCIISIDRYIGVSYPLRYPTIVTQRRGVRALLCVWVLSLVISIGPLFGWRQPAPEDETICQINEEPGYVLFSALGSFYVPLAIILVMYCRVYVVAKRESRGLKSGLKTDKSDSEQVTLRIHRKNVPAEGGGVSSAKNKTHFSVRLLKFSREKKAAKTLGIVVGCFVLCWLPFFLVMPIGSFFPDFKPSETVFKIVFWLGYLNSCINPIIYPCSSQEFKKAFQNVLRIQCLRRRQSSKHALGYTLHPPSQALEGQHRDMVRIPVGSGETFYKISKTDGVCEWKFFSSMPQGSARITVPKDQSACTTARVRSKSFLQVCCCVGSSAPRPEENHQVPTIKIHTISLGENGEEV
Experimental: The isolated artery, cut into ~4 mm long rings, was then horizontally put up between two stainless steel hooks (diameter 0.15 mm). One hook was fastened to the bottom of the chamber and the other to an isometric FDT10-A force displacement transducer (DMT Model 750TOBS, Denmark), linked with Powerlab 4/26 analyzer (ADInstruments), and processed by LabChart 7 software. […] The initial optimal tissues tension was set at 0.75 g. Chloroethylclonidine (3 μM) as the preferential α1B-adrenoreceptor alkylating agent was used during incubation and after 30 min it was completely washed off. Through 100 min of equilibration tissues were stimulated with noradrenaline (1 μM) four times with washing out until the contractile response become constant. Two cumulative concentration-response curves to noradrenaline, at an interval of 60 min, were established on each arterial ring both in the presence and absence of antagonist. The incubation with antagonists went on for 30 min. The experiments were carried out in the constant presence of yohimbine (0.1 μM) and propranolol (1 μM) to block α2- and β-adrenoceptors, respectively in order to minimize the involvement of these adrenoceptors in the response to noradrenaline.
as §1

| Structure (SMILES) | Schild slope ± S.E.M., α1B (α1B-adrenoceptors) | Kb (α1B-adrenoceptors) | Schild slope ± S.E.M., α1A (α1A-adrenoceptors) | Kb (α1A-adrenoceptors) | therapeutic antiarrhythmic activity (premature ventricular contractions) [1] | inhibition of lipid peroxidation (in words) [2] | % reduction of absorbance (% antioxidant activity) [2] | Absorbance [2] |
| --- | --- | --- | --- | --- | --- | --- | --- | --- |
| COc1ccccc1N1CCN(CCOCCOc2c(C)cccc2C)CC1.Cl [HBK-14, 1-[(2,6-dimethylphenoxy)ethoxyethyl]-4-(2-methoxyphenyl)piperazine hydrochloride] | 1.03 ± 0.03 | 20 nM | 0.97 ± 0.15 | 10.2 nM |  | inactive | −4.10% | 0.939 ± 0.007 |
| COc1ccccc1N1CCN(CCOCCOc2c(C)cccc2Cl)CC1.Cl [HBK-15, 1-[(2-chloro-6-methylphenoxy)ethoxyethyl]-4-(2-methoxyphenyl)piperazine hydrochloride] | 0.96 ± 0.01 | 21.4 nM | 1.01 ± 0.18 | 19.5 nM |  | inactive | 1.22% | 0.891 ± 0.008 |

More lines, main results first:

| Schild slope ± S.E.M., α1B (α1B-adrenoceptors) | Kb (α1B-adrenoceptors) | Schild slope ± S.E.M., α1A (α1A-adrenoceptors) | Kb (α1A-adrenoceptors) | Structure (SMILES) | therapeutic antiarrhythmic activity (premature ventricular contractions) [1] | inhibition of lipid peroxidation (in words) [2] | % reduction of absorbance (% antioxidant activity) [2] | Absorbance [2] |
| --- | --- | --- | --- | --- | --- | --- | --- | --- |
| 1.06 ± 0.05 | 8.51 nM | 0.96 ± 0.05 | 1.23 nM | COc1ccccc1N1CCN(CCCOc2cc(C)cc(C)c2C)CC1 [HBK-19, 1N-[3-(2,3,5-trimethylphenoxy)propyl]-4N-(2-methoxyphenyl)piperazine hydrochloride] | restored normal heart rhythm | inhibited lipid peroxidation | 22.62% | 0.698 ± 0.007 |
| 1.03 ± 0.18 | 4.47 nM | 1.10 ± 0.06 | 3.24 nM | COc1ccccc1N1CCN(CCCOc2c(C)cc(C)cc2C)CC1 [HBK-18, 1N-[3-(2,4,6-trimethylphenoxy)propyl]-4N-(2-methoxyphenyl)piperazine hydrochloride] | restored normal heart rhythm | inhibited lipid peroxidation | 13.41% | 0.781 ± 0.004 |
| 1.03 ± 0.12 | 6.17 nM | 1.06 ± 0.08 | 1.78 nM | COc1ccccc1N1CCN(CCCOc2cc(C)ccc2Cl)CC1 [HBK-16, 1N-[3-(2-chloro-5-methylphenoxy)propyl]-4N-(2-methoxyphenyl)piperazine hydrochloride] | restored normal heart rhythm | inhibited lipid peroxidation | 16.63% | 0.752 ± 0.007 |

— paper PMC4971072, “Chemically Homogenous Compounds with Antagonistic Properties at All α1-Adrenoceptor Subtypes but not β1-Adrenoceptor Attenuate Adrenaline-Induced Arrhythmia in Rats” (Frontiers in Pharmacology, 2016)
